According to patent publication US11384071B2, “Inhibitors of mechanotransduction to treat pain and modulate touch perception” (Max-Delbrück-Centrum für Molekulare Medizin in der …, priority 2016, dated 2022):

How the values were obtained:
STOML3 = target: T1, STOML3 (Mus musculus, UniProt Q6PE84); assay: BiFC assay of STOML3 self-association in HEK-293 cells; format: cell-based; conditions: for STOML3 self-association based on the slope of YFP signal development: primary screen of about 35000 small molecules, each at 10 M (so in the source)
T1 construct: expressed in transfected cells; host or cells: HEK-293
T1 sequence (Q6PE84 1-287): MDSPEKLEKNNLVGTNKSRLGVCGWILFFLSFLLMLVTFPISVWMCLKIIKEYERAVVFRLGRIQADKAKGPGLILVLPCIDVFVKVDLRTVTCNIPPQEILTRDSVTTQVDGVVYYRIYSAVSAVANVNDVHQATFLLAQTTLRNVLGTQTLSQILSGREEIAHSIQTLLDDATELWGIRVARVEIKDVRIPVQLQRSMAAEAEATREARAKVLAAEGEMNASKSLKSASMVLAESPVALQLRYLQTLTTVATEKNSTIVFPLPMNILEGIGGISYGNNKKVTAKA
Protocol: HEK-293 cells were cultured in T-150 flasks to approximately 70% confluence; cells were co-transfected with plasmids encoding STOML3-VC and STOML3-VN using Fugene-HD, as per manufacturer's instructions. The transfection reaction was allowed to proceed for 8 h before cells were recovered from the dishes, resuspended in DMEM media containing 25 mM HEPES and lacking phenol red. Cells were plated in PLL-coated 384 well plates using an automated dispenser (EL406 Microplate Washer Dispenser). Plates already contained compound from the ChemBioNet compound library1. The final assay volume was 40 μl cells with 10 μM of compound. […] Development of the YFP fluorescence signal was monitored overnight (15 h), with readings taken every 3 h (ex: 515±8 nm, em: 535±8 nm). In between readings cells were maintained at 37° C., 5% CO2, and 95% humidity. The overnight monitoring of signal development was performed on a Freedom Evo workstation equipped with a robotic arm for plate transport and a Safirell plate reader for fluorescence measurement (Tecan Group Ltd, Männedorf, Switzerland), and an integrated STX44-ICSA automated plate incubator (Liconic AG, Mauren, Liechtenstein) for plate storage in between measurements. Experiments were repeated with 20 plates each day until the entire compound library had been screened and data was normalized to in-plate controls.
Compounds of interest were selected from the slope of YFP-signal vs time. Each well was compared to the average slope of in-plate positive controls (normalized percent activity), and compared to the mean and standard deviation of all samples on a plate (without the controls), giving a Z score as a measure of statistical significance. Initially, compounds were re-screened in triplicate to confirm whether or not the noted differences were repeatable; compounds with confirmed activity were selected for further analysis.
In mammals STOML3 belongs to a family of five structurally conserved membrane proteins, including stomatin, STOML1, STOML2, and podocin^10,12-16, all of which self-associate via their stomatin-domain (FIG. 8a)^10. Self-association of stomatin-domain proteins can be monitored in HEK293 cells using Bimolecular Fluorescence Complementation (BiFC) whereby N- and C-terminal halves of the YFP molecule are tagged to the prey and bait protein STOML3^2,17 (FIG. 1a). Irreversible association of the YFP fragments produces fluorescence that increases linearly over time (FIG. 1b).

STOML3-FLAG = target: T2, STOML3-FLAG (Mus musculus, UniProt Q6PE84); assay: dSTORM imaging of STOML3-FLAG cluster size at the plasma membrane of N2A cells; format: cell-based; conditions: pre-incubation three hours, 20 μM, vs vehicle
T2 construct: expressed in transfected cells; host or cells: N2A (Neuro2A)
Protocol: N2A cells were cultured on EHS-Laminin coated precision coverglass, thickness 0.17, then transfected with a plasmid encoding STOML3-FLAG. After overnight incubation, cells were treated for 3 hours with 20 μM compound, or DMSO as a control. Cells were then fixed (15 min, 4% PFA), permeabilized (0.05% TritonX 100, 5 min) and blocked (phosphate buffered saline (PBS) containing 10% fetal goat serum (FGS), 37° C., 1 hr). Cell were labeled with mouse anti-FLAG antibody (M2 clone, 1:100 in PBS containing 10% FGS). The secondary antibody was an Alexa647-conjugated, goat anti-mouse antibody (1:100 in PBS plus 10% FGS, 1 h, 37° C.). After staining, the samples were fixed again. […]
For analysis of STOML3 domain size, all reconstructed images were blinded and then from each imaged cell 100 individual dots were cropped (size: 20×20 pixels). A 2D-Gaussian fit was calculated using the Igor software (WaveMetrics, USA). […] After domain sizes had been determined for each cell, images were unblinded and then normalized against the average domain size for control cells prepared and imaged on the same day.
We next determined whether OB-1 and OB-2 modulation of STOML3 oligomerization state influences clustering of the protein in the plasma membrane. […]

head-restrained mice = assay: Tactile perception task for head-restrained mice; format: in vivo, mouse
From the text: Male C57B16/J mice were anaesthetized and a lightweight metal headholder was implanted to the skull using glue (Loctite 401, Henkel) and dental cement (Paladur®, Heraeus). Mice were habituated to the head-restraint and the behavioral setup over 1-2 days. Mouse licking and forepaw behavior was monitored with three custom-made capacitance sensors: a licking sensor, a rest sensor and a target sensor that provided an online monitor of paw or tongue contact. The rest sensor was a ball (diameter: 6 mm) mounted on a glass rod of 30 mm length, glued to a piezoelectric bender (PICMA® Multilayer Piezo Bender Actuator, Physik Instrumente). The piezo generated a 30 ms cosine tactile pulse via a piezo amplifier system (Sigmann Elektronik). A urethane foam buffer (Poron®, Rogers Cooperation) was placed between the piezo and the supporting platform to reduce ringing oscillations after the stimulus pulse. The stimulus amplitude was calibrated with a high-speed (300 Hz) camera (Dalsa Genie HM640). […] Mice were water restricted and given approximately 4×0.6 μl water rewards on condition of touching the target sensor within a defined latency from stimulus onset and licking the water dispenser. The target sensor moved to the start position at the start of a new trial and away from the mouse at the end of the trial. Inter-trial interval was randomized between 7 and 13 s. […]

## Cc1ccnc(NC(=O)CSc2nnc3c4ccccc4n(Cc4ccccc4)c3n2)c1 [OB-2]
STOML3
  STOML3 self-association based on the slope of YFP signal development: most effective inhibitory compounds
STOML3-FLAG
  STOML3-FLAG cluster size: significantly reduced

## CCOC(=O)c1c(-c2ccccc2)oc2ccc(Oc3c([N+](=O)[O-])ncn3C)cc12 [OB-1, Ethyl 5-((1-methyl-4-nitro-1H-imidazol-5-yl)oxy)-2-phenylbenzofuran-3-carboxylate]
STOML3; 2 μm and 20 μm, wild type STOML3 as bait and prey
  normalized slope of BiFC signal development: significantly reduced
STOML3; lower OB-1 concentration, 2 M (so in the source)
  BiFC signal: inhibited
STOML3
  STOML3 self-association based on the slope of YFP signal development: most effective inhibitory compounds
STOML3-FLAG
  STOML3-FLAG cluster size: significantly reduced
head-restrained mice; 11 nmol per paw into forepaw, stimulus strengths 125-275 μm
  psychometric curve of tactile stimulus detection: shifted to the right
head-restrained mice; after drug treatment
  time for detection rates of threshold stimuli to return to pre-treatment levels: 1 to 4 days
